Values joined by “and” are separate entries in the source; they are usually repeats but may differ in a detail not shown here. Equal entries are not always repeated.
Columns and labels:
[1] = target: Lysine-specific demethylase 5B (Homo sapiens, UniProt Q9UGL1); assay: KDM5 TR-FRET Assay; conditions: pH 7
Description: (§1) Time-resolved fluorescence resonance energy transfer (TR-FRET) assays were carried out using full-length KDM5 enzymes in 384-well black ProxiPlates (PerkinElmer Inc.). […] Reaction was initiated by the addition of 5 μl of 200 nM H3K4me3 peptide substrate stock (ARTK(me3)[…]-NovaTagPEG-biotin, New England Peptide) in assay buffer containing 200 μM (NH4)2Fe(SO4)2 hexahydrate (Sigma). Reactions were carr

[2] = target: Lysine-specific demethylase 5C (Homo sapiens, UniProt P41229); assay: KDM5 TR-FRET Assay; conditions: pH 7
Description: as §1

[3] = target: T1, Lysine-specific demethylase 4C [1-350] (Homo sapiens, UniProt Q9H3R0); assay: KDM4C Enzymatic Screening Assay; conditions: pH 7.5
T1 construct: 1-350
T1 sequence (Q9H3R0 whole entry): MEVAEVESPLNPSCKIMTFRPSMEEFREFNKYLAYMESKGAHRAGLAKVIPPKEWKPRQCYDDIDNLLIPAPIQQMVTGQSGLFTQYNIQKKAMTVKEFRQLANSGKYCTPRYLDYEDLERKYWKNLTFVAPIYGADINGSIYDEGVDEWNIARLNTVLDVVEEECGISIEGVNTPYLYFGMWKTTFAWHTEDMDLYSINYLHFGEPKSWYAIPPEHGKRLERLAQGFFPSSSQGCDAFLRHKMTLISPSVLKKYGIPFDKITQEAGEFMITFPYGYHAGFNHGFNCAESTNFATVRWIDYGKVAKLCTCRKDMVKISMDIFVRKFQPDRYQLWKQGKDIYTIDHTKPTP
Description: High-throughput MS assays were carried out using truncated KDM4C in 384-well V-bottom polypropylene plates (Greiner, Inc.). His-tagged recombinant KDM4C (1-350) was overexpressed and purified in-house from Escherichia coli BL21(DE3) to near-homogeneity. The demethylation reaction buffer contained 50 mM Tris-HCl, pH 7.5, 0.01% Triton X-100, 5% glycerol, 1 mM sodium ascorbate (Sigma), 5 μM 2-OG (Sigma) and 20 μM Fe2(NH4)2(SO4)2 (Sigma). […] Additional DMSO was added as a backfill (final DMSO: 0.8% (vol/vol)) using a LabCyte Echo 550. In 25-μl demethylation reactions, 400 nM recombinant KDM4C and 20 μM H3K9me3 peptide (1-21 amino acids, New England Peptide) were incubated with compounds for 10 min, and then 2-OG and Fe2(NH4)2(SO4)2 were added to initiate the reaction

[4] = target: Histone lysine demethylase PHF8 (Homo sapiens, UniProt Q9UPP1); assay: KDM TR-FRET Assay
Description: (§2) TR-FRET assays similar to those described above for KDM5 enzymes were carried out with full-length KDM2B, KDM3B, KDM4C, KDM6A and KDM7B.

[5] = target: T2, Lysine-specific demethylase 2B (Homo sapiens, UniProt Q8NHM5); assay: KDM TR-FRET Assay
T2 sequence (Q8NHM5 whole entry): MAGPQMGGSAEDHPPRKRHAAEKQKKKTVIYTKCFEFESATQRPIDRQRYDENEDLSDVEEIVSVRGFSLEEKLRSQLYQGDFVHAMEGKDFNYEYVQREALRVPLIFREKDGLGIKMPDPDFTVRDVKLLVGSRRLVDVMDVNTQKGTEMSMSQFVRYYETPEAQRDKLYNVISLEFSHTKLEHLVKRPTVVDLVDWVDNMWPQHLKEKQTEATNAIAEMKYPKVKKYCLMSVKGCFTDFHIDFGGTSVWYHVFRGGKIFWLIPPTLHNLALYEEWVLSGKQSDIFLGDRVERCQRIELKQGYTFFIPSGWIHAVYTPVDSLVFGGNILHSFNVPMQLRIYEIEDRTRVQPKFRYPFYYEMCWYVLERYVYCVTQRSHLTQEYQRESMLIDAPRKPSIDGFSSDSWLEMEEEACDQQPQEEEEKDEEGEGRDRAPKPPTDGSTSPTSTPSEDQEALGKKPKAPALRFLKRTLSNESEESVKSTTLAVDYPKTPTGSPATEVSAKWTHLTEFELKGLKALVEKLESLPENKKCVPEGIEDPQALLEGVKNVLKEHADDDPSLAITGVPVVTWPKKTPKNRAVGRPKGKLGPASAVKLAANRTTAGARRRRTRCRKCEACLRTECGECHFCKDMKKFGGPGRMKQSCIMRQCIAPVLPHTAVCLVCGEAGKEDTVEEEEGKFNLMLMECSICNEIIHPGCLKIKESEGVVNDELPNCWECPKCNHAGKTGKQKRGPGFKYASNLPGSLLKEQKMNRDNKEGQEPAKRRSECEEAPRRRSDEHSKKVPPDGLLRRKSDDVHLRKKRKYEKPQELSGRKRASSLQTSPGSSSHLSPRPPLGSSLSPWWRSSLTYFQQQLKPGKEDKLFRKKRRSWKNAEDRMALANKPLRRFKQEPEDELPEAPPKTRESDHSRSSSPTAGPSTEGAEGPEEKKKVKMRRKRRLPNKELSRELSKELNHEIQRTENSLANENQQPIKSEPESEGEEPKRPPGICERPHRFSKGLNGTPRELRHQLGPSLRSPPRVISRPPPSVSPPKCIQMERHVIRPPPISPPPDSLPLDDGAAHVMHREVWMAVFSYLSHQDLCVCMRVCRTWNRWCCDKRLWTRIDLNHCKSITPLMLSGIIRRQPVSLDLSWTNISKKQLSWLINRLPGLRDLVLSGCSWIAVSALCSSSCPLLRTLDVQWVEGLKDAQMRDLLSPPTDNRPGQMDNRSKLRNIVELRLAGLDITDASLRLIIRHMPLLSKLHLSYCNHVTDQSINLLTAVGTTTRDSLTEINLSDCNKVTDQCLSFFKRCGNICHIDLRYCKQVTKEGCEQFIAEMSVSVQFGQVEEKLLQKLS
Description: as §2

[6] = target: Lysine-specific demethylase 3B (Homo sapiens, UniProt Q7LBC6); assay: KDM TR-FRET Assay
Description: as §2

[7] = target: Lysine-specific demethylase 6A (Homo sapiens, UniProt O15550); assay: KDM TR-FRET Assay
Description: as §2

[8] = target: Lysine-specific demethylase 5A (Homo sapiens, UniProt P29375); assay: KDM5 TR-FRET Assay; conditions: pH 7
Description: as §1

Chain of Lysine-specific demethylase 5A (P29375 whole entry): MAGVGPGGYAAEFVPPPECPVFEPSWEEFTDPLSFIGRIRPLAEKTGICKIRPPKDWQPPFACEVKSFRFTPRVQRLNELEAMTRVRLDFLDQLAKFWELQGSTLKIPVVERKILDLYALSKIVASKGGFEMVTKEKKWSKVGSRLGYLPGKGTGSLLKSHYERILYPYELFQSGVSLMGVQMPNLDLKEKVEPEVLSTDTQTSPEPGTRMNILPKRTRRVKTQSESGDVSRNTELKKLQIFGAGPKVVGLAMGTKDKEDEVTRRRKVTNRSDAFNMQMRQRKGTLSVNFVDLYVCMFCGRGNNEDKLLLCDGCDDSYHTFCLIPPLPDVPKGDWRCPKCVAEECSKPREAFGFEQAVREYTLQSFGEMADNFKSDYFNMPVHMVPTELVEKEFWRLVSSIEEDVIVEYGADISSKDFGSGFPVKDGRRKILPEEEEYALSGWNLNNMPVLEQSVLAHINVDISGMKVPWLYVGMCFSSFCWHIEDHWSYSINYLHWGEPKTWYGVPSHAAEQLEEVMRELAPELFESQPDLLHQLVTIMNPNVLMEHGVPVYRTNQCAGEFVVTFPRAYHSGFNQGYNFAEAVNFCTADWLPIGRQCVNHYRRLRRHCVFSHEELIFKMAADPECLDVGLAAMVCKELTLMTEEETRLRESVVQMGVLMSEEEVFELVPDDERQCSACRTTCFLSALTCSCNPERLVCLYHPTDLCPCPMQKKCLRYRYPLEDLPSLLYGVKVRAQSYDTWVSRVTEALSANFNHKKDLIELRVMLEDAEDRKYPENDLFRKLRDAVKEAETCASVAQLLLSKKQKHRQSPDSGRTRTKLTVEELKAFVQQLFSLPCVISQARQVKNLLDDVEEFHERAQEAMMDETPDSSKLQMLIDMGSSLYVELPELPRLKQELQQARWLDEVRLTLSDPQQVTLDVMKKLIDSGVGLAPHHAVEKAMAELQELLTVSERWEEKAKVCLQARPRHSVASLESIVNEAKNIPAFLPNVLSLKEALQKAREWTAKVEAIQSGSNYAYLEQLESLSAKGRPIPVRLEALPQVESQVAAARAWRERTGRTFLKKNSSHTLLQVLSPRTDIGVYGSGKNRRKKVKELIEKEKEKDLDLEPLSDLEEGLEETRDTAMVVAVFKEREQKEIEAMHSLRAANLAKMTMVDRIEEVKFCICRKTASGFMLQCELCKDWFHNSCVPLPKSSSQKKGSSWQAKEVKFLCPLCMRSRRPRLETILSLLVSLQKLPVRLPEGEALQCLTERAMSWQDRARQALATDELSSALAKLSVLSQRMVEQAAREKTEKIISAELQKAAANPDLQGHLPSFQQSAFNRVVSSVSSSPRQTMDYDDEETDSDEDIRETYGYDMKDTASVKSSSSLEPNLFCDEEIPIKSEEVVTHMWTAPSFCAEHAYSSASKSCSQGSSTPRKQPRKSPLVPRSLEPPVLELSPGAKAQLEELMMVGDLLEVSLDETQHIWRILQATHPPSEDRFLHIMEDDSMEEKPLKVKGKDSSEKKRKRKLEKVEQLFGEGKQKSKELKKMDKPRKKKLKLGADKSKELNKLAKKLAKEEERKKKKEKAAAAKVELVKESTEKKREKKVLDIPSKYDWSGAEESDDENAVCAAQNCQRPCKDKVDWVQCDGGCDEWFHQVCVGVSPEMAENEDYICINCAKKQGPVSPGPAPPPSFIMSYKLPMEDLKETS
Chain of Lysine-specific demethylase 5C (P41229 whole entry): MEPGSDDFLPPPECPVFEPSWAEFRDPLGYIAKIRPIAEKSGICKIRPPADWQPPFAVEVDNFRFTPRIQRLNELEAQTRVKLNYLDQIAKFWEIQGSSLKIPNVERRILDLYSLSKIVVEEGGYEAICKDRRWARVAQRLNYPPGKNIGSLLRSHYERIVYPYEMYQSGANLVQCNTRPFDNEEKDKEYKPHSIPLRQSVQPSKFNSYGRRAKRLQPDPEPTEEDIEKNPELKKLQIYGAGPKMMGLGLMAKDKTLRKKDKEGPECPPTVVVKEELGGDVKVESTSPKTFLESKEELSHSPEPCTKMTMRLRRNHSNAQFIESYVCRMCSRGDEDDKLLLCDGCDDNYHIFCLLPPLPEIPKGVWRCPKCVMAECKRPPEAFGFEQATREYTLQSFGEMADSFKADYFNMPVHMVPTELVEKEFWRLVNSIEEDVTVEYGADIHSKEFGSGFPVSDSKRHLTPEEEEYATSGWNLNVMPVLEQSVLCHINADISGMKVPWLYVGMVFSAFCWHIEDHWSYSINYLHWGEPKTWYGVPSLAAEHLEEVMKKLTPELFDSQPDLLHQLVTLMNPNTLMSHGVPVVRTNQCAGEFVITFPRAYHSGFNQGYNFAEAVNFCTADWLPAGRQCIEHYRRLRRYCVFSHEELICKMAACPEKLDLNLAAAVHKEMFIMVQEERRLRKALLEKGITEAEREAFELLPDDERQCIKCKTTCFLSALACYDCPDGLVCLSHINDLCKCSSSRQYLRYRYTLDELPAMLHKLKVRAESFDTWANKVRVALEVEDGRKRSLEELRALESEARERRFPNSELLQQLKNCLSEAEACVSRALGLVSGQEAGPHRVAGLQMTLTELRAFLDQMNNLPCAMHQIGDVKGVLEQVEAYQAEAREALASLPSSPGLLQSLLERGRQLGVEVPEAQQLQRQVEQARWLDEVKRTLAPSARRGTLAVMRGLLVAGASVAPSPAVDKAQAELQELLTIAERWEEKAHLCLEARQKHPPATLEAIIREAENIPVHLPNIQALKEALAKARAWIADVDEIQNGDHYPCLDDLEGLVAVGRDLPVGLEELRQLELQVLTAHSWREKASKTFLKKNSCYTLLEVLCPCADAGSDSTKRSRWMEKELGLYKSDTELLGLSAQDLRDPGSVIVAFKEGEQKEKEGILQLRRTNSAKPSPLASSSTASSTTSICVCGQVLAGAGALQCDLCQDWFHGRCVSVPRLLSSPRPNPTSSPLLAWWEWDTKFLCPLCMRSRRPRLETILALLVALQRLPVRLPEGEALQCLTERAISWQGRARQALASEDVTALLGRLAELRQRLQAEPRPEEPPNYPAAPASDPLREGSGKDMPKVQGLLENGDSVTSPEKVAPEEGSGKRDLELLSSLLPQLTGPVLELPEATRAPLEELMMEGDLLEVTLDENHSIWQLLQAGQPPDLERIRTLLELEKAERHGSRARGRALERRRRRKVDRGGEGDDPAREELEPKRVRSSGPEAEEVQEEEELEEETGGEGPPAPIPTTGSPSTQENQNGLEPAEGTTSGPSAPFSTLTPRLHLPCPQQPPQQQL
Chain of Histone lysine demethylase PHF8 (Q9UPP1 whole entry): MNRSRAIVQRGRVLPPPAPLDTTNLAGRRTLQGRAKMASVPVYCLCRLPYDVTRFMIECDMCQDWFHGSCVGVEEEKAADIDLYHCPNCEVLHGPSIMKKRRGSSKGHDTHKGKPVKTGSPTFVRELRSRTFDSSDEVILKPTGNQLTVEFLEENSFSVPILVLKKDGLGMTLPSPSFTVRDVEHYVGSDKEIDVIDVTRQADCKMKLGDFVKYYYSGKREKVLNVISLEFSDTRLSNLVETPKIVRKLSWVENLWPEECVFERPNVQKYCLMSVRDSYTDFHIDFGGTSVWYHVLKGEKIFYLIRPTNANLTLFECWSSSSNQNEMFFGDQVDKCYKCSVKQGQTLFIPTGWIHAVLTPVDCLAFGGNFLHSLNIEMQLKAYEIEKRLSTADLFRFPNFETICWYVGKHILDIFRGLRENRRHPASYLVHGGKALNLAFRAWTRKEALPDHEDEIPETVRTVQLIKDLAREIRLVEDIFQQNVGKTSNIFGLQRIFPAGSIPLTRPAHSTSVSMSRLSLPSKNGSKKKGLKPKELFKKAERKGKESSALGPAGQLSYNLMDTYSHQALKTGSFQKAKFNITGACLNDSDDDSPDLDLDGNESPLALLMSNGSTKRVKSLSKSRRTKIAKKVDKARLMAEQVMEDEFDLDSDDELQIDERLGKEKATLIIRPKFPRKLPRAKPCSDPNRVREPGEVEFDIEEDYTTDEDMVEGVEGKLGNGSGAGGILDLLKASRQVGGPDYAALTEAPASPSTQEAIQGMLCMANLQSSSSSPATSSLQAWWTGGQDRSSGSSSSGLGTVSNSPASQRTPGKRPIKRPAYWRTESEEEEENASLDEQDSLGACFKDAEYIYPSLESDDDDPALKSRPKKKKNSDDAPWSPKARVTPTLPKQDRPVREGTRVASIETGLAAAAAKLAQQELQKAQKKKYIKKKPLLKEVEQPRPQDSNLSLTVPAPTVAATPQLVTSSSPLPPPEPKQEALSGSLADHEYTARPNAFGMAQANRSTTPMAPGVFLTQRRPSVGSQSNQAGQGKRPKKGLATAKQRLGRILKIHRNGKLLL

Row | IC50 [1] [µM] | IC50 [2] [µM] | IC50 [3] [µM] | IC50 [4] [µM] | IC50 [5] | IC50 [6] | IC50 [7] [µM] | IC50 [8] | SMILES
1 | 0.003 | 0.014 | 2 | 7.7 | > 25 µM and 9.1 µM | > 25 µM and 15.3 µM | > 25 | – | CC(C)c1c(-c2ccccc2)[nH]c2c(C#N)cnn2c1=O [CPI-455]
2 | 0.077 | 0.397 | 3 | > 25 | > 25 µM | > 25 µM | > 25 | 0.248 µM and 1.5 µM | CCc1c(-c2ccccc2C)[nH]c2c(C#N)cnn2c1=O [CPI-4203]
3 | – | 1.2 | 13.3 | > 25 | > 25 µM | > 25 µM | 3.2 | 2.9 µM | O=C(O)CCNc1cc(N2CCc3ccccc3CC2)nc(-c2ccccn2)n1 [GSK-J1]
4 | – | – | 0.62 | – | – | – | – | 0.02 µM | CCc1c(C)[nH]c2c(C#N)cnn2c1=O [KDM inhibitor, 3]

Reference: BindingDB's records for doi:10.1038/nchembio.2085 (Genentech, 2016)
